Source: article PMC9412022, “Integrate thermostabilized fusion protein apocytochrome b 562 RIL and N-glycosylation mutations: A novel approach to heterologous expression of human UDP-glucuronosyltransferase (UGT) 2B7” (Frontiers in Pharmacology, 2022)
Substitutions are numbered along the chain they refer to.

Key:
[1] = target: T1, UGT2B7-BRIL (Homo sapiens, UniProt P16662); experiment: CPM thermostability assay (melting temperature) of UGT2B7-BRIL in the presence of compounds; assay type: binding; settings: apo protein Tm […]; for melting temperature (Tm) of UGT2B7-BRIL in the presence of the compound alone: CPM fluorescence, 20-95°C ramp
T1 construct: 10xHis (C); made in house; host or cells: Spodoptera frugiperda Sf9 insect cells (Bac-to-Bac baculovirus)
T1 sequence (P16662 24-529): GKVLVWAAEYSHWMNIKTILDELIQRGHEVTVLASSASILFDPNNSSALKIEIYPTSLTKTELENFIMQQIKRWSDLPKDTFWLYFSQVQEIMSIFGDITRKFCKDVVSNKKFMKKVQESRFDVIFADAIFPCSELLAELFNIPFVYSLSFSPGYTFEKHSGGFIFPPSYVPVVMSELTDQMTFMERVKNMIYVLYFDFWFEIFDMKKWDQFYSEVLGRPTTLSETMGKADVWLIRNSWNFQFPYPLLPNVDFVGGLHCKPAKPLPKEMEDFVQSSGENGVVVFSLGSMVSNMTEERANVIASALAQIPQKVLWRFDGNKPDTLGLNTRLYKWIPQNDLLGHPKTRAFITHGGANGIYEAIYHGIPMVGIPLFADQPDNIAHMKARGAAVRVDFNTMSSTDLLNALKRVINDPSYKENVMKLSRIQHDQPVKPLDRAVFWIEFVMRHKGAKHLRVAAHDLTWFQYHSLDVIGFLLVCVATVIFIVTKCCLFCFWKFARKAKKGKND
Method: The gain setting was determined at the beginning of the run and the melting temperature (Tm) was calculated from the point of inflection.

[2] = test system: purified UGT2B7 proteins; experiment: Glucuronidation of zidovudine by purified UGT2B7 proteins in detergent LMNG/CHS; assay type: in vitro ADME, human; settings: purified protein in detergent LMNG/CHS, no phospholipid bilayer
[3] = target: T2, UGT2B7 (N315A)-BRIL (Homo sapiens, UniProt P16662, N315A); experiment: Surface plasmon resonance binding to purified UGT2B7 (N315A)-BRIL; settings: SPR, 25°C, Biacore T200, CM7 chip, steady-state affinity model
T2 construct: we selected the full-length UGT2B7 (N315A)-BRIL construct with BRIL covalently attached to the C-terminus of UGT2B7; made in house; host or cells: Spodoptera frugiperda Sf9 insect cells (Bac-to-Bac baculovirus)
T2 sequence (P16662 24-529 N315A): T1 sequence (P16662 24-529) with N292A
Method: All experiments were performed with a running buffer containing phosphate buffer (pH 7.4), 0.002% LMNG, and 0.0002% CHS to maintain the concentration of detergent above the critical micelle concentration, which is necessary for the formation of micelles and the correct folding of the purified UGT2B7 proteins. About 8,500 response units of 6 × His-tag monoclonal antibody (Proteintech) were directly immobilized on the chip, which were desalted in 10 mM sodium acetate (pH 4.5). Then the purified UGT2B7 proteins flowed over the chip and coupled with the His-tag antibody at about 18,000 RU. And the blank channel was used as the negative control. Substrates or inhibitors solutions flowed over the chip at a flow rate of 30 μl/min and were contacted 120 s. Then, flowed running buffer at the same rate to dissociation 120 s. The obtained affinities data were analyzed with the BIA evaluation software using the steady-state affinity model.

melting temperature (Tm) of UGT2B7-BRIL in the presence of the compound alone [1]	melting temperature (Tm) of UGT2B7-BRIL in the presence of both cofactor (UDP) and substrate ([1]; substrate + UDP)	glucuronidation by purified UGT2B7 proteins [2]	Kd [3]	Compound
53.2 °C	61.0 °C	not observed		Cc1cn([C@H]2C[C@H](N=[N+]=[N-])[C@@H](CO)O2)c(=O)[nH]c1=O [Zidovudine]
			49.8 µM	COc1ccc([C@@H]2CC(=O)c3c(O)cc(O)cc3O2)cc1O [Hesperetin]
			17.3 µM	COc1cc2c(c(O)c1OC)-c1c(cc(OC)c(OC)c1OC)C[C@@H](C)[C@@H](C)C2 [Schisanhenol]
50.9 °C			589 µM	O=c1ccn([C@@H]2O[C@H](COP(=O)([O-])OP(=O)([O-])O)[C@@H](O)[C@H]2O)c(=O)[nH]1.[Na+].[Na+] [UDP, uridine 5′-diphosphate disodium salt]
